In patent publication US20040082635A1, “Fused cyclic compounds and medicinal use thereof” (priority 2001, published 2004):
Counter-ions that a name gives are not always drawn. Like-named read-outs stand apart in the source and are kept apart here.

Target: T1, HCV polymerase (Hepatitis C virus genotype 1b, UniProt P26663)
T1 construct: a region encoding NS5B (591 amino acids; J Virol 1991 Mar, 65(3), 1105-13) was amplified by PCR; 6 His (N); made in house; host or cells: Escherichia coli
Test: biochemical

[1] = read-out: HCV polymerase inhibitory activity IC50

T1 sequence (P26663 2420-3010): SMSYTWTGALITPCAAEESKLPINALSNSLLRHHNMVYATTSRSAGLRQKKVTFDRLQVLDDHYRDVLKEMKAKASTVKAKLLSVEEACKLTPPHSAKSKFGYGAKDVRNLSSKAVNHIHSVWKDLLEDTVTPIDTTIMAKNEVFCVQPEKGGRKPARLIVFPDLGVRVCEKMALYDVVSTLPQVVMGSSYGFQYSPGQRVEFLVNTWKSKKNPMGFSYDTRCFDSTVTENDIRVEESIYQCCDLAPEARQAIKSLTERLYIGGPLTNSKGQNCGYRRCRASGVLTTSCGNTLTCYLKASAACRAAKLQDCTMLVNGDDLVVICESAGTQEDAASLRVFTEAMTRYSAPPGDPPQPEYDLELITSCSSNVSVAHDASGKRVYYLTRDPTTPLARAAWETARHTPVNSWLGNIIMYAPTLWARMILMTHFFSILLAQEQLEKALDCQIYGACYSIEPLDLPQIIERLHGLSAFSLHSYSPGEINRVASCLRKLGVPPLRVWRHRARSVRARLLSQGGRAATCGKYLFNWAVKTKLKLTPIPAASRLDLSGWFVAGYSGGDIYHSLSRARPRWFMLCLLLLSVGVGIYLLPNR

Structure (SMILES) | IC50 [1] | IC50 (HCV polymerase inhibitory activity IC50)
CSc1ccc(-c2ccc(Cl)cc2)c(COc2ccc(-c3nc4cc(C(=O)O)ccc4n3C3CCCCC3)cc2)c1 [Example 297, 2-{4-[2-(4-chlorophenyl)-5-methylthiobenzyloxy]phenyl}-1-cyclohexylbenzimidazole-5-carboxylic acid] | 22 nM | 
C[S+]([O-])c1ccc(-c2ccc(Cl)cc2)c(COc2ccc(-c3nc4cc(C(=O)O)ccc4n3C3CCCCC3)cc2)c1 (stereo not drawn) [Example 298, 2-{4-[2-(4-chlorophenyl)-5-methylsulfinylbenzyloxy]phenyl}-1-cyclohexylbenzimidazole-5-carboxylic acid] | 11 nM | 
N#Cc1ccc(-c2ccc(Cl)cc2)c(COc2ccc(-c3nc4cc(C(=O)O)ccc4n3C3CCCCC3)cc2)c1 [Example 299, 2-{4-[2-(4-chlorophenyl)-5-cyanobenzyloxy]phenyl}-1-cyclohexyl-benzimidazole-5-carboxylic acid] | 18 nM | 
CN(C)C(=O)c1ccc(C(Oc2ccc(-c3nc4cc(C(=O)O)ccc4n3C3CCCCC3)c(F)c2)c2ccc(C(=O)N(C)C)cc2)cc1 [Example 301] | 17 nM | 
COC(=O)c1ccc2c(c1)nc(-c1ccc(OCc3cc(C(=O)N(C)C)ccc3-c3ccc(Cl)cc3)cc1F)n2C1CCCCC1 [Example 303, methyl 2-{4-[2-(4-chlorophenyl)-5-(dimethylcarbamoyl)benzyloxy]-2-fluorophenyl}-1-cyclohexylbenzimidazole-5-carboxylate] | 100 nM | 
O=C(O)c1ccc(-c2ccc(Cl)cc2)c(COc2ccc(-c3nc4cc(C(=O)O)ccc4n3C3CCCCC3)c(F)c2)c1 [Example 305, 2-{4-[5-carboxy-2-(4-chlorophenyl)benzyloxy]-2-fluorophenyl}-1-cyclohexylbenzimidazole-5-carboxylic acid] | 10 nM | 
COc1ccc(-c2ccc(C(=O)O)cc2)c(COc2ccc(-c3nc4cc(C(=O)O)ccc4n3C3CCCCC3)cc2)c1 [Example 306, 2-{4-[2-(4-carboxyphenyl)-5-methoxybenzyloxy]phenyl}-1-cyclohexylbenzimidazole-5-carboxylic acid] | 13 nM | 
CN(C)C(=O)c1ccc(-c2ccc(C(N)=O)cc2)c(COc2ccc(-c3nc4cc(C(=O)O)ccc4n3C3CCCCC3)cc2)c1 [Example 307, 2-{4-[2-(4-carbamoylphenyl)-5-(dimethylcarbamoyl)benzyloxy]-phenyl}-1-cyclohexylbenzimidazole-5-carboxylic acid] | 22 nM | 
Nc1ccc(-c2ccc(Cl)cc2)c(COc2ccc(-c3nc4cc(C(=O)O)ccc4n3C3CCCCC3)cc2)c1 [Example 308, 2-{4-[5-amino-2-(4-chlorophenyl)benzyloxy]phenyl}-1-cyclohexylbenzimidazole-5-carboxylic acid] | 23 nM | 
O=C(O)c1ccc(C(Oc2ccc(-c3nc4cc(C(=O)O)ccc4n3C3CCCCC3)c(F)c2)c2ccc(C(=O)O)cc2)cc1 [Example 312, 2-{4-[bis(4-carboxyphenyl)methoxy]-2-fluorophenyl}-1-cyclohexylbenzimidazole-5-carboxylic acid] | 23 nM | 
CNC(=O)c1ccc(-c2ccc(Cl)cc2)c(COc2ccc(-c3nc4cc(C(=O)OC)ccc4n3C3CCCCC3)c(F)c2)c1 [Example 314, methyl 2-{4-[2-(4-chlorophenyl)-5-(methylcarbamoyl)benzyloxy]-2-fluorophenyl}-1-cyclohexylbenzimidazole-5-carboxylate] | 97 nM | 
O=C(O)c1ccc2c(c1)nc(-c1ccc(OCc3cc(Cl)ccc3-c3ccncc3)cc1)n2C1CCCCC1 [Example 315, 2-{4-[5-chloro-2-(4-pyridyl)benzyloxy]phenyl}-1-cyclohexylbenzimidazole-5-carboxylic acid hydrochloride] | 28 nM | 
O=C(O)c1ccc2c(c1)nc(-c1ccc(OCc3cc(C(=O)NCc4ccccc4)ccc3-c3ccc(Cl)cc3)cc1)n2C1CCCCC1 [Example 316, 2-{4-[2-(4-chlorophenyl)-5-(benzylcarbamoyl)benzyloxy]phenyl}-1-cyclohexylbenzimidazole-5-carboxylic acid hydrochloride] | 22 nM | 
O=C(O)c1ccc2c(c1)nc(-c1ccc(OCc3cc(C(=O)NCC4CCCCC4)ccc3-c3ccc(Cl)cc3)cc1)n2C1CCCCC1 [Example 317, 2-{4-[2-(4-chlorophenyl)-5-(cyclohexylmethylcarbamoyl)-benzyloxy]phenyl}-1-cyclohexylbenzimidazole-5-carboxylic acid hydrochloride] | 32 nM | 
O=C(O)c1ccc2c(c1)nc(-c1ccc(OCc3cc(C(=O)NCc4ccncc4)ccc3-c3ccc(Cl)cc3)cc1)n2C1CCCCC1 [Example 318, 2-{4-[2-(4-chlorophenyl)-5-(4-pyridylmethylcarbamoyl)-benzyloxy]phenyl}-1-cyclohexylbenzimidazole-5-carboxylic acid dihydrochloride] | 12 nM | 
CN(Cc1ccccc1)C(=O)c1ccc(-c2ccc(Cl)cc2)c(COc2ccc(-c3nc4cc(C(=O)O)ccc4n3C3CCCCC3)cc2)c1 [Example 319, 2-{4-[2-(4-chlorophenyl)-5-(N-benzyl-N-methylcarbamoyl)-benzyloxy]phenyl}-1-cyclohexylbenzimidazole-5-carboxylic acid hydrochloride] | 30 nM | 
CN(C)C(=O)c1ccc(-c2ccncc2)c(COc2ccc(-c3nc4cc(C(=O)O)ccc4n3C3CCCCC3)cc2)c1 [Example 320, 2-{4-[5-dimethylaminocarbonyl-2-(4-pyridyl)benzyloxy]phenyl}-1-cyclohexylbenzimidazole-5-carboxylic acid dihydrochloride] | 36 nM | 
CN1CCN(C(=O)c2ccc(-c3ccc(Cl)cc3)c(COc3ccc(-c4nc5cc(C(=O)O)ccc5n4C4CCCCC4)cc3)c2)CC1 [Example 321, 2-{4-[2-(4-chlorophenyl)-5-(4-methylpiperazin-1-ylcarbonyl)benzyloxy]phenyl}-1-cyclohexylbenzimidazole-5-carboxylic acid dihydrochloride] | 15 nM | 
O=C(O)c1ccc2c(c1)nc(-c1ccc(OCc3cc(C(=O)NCc4cccnc4)ccc3-c3ccc(Cl)cc3)cc1)n2C1CCCCC1 [Example 322, 2-{4-[2-(4-chlorophenyl)-5-{N-(3-pyridylmethyl)carbamoyl}-benzyloxy]phenyl}-1-cyclohexylbenzimidazole-5-carboxylic acid dihydrochloride] | 16 nM | 
O=C(O)c1ccc2c(c1)nc(-c1ccc(OCc3cc(C(=O)NCc4ccccn4)ccc3-c3ccc(Cl)cc3)cc1)n2C1CCCCC1 [Example 323, 2-{4-[2-(4-chlorophenyl)-5-{N-(2-pyridylmethyl)carbamoyl}-benzyloxy]phenyl}-1-cyclohexylbenzimidazole-5-carboxylic acid dihydrochloride] | 18 nM | 
O=C(O)c1ccc2c(c1)nc(-c1ccc(OCc3cc(C(=O)NC4CCCCC4)ccc3-c3ccc(Cl)cc3)cc1)n2C1CCCCC1 [Example 324, 2-{4-[2-(4-chlorophenyl)-5-(cyclohexylcarbamoyl)benzyloxy]-phenyl}-1-cyclohexylbenzimidazole-5-carboxylic acid hydrochloride] | 27 nM | 
O=C(O)c1ccc2c(c1)nc(-c1ccc(OCc3cc(C(=O)NCCc4ccncc4)ccc3-c3ccc(Cl)cc3)cc1)n2C1CCCCC1 [Example 325, 2-{4-[2-(4-chlorophenyl)-5-(2-pyridin-4-ylethylcarbamoyl)-benzyloxy]phenyl}-1-cyclohexylbenzimidazole-5-carboxylic acid dihydrochloride] | 19 nM | 
CN(C)C(=O)c1ccc(C(Oc2ccc(-c3nc4cc(C(=O)O)ccc4n3C3CCCCC3)c(F)c2)c2ccc(F)cc2)cc1 (stereo not drawn) [Example 326, 2-{4-[(4-fluorophenyl){4-(dimethylaminocarbonyl)phenyl}methoxy]-2-fluorophenyl}-1-cyclohexylbenzimidazole-5-carboxylic acid] | 18 nM | 
O=C(O)c1ccc(C(Oc2ccc(-c3nc4cc(C(=O)O)ccc4n3C3CCCCC3)c(F)c2)c2ccc(F)cc2)cc1 (stereo not drawn) [Example 327, 2-{4-[(4-fluorophenyl)(4-carboxyphenyl)methoxy]-2-fluorophenyl}-1-cyclohexylbenzimidazole-5-carboxylic acid] | 19 nM | 
O=C1CCN(C(=O)c2ccc(-c3ccc(Cl)cc3)c(COc3ccc(-c4nc5cc(C(=O)O)ccc5n4C4CCCCC4)cc3)c2)CC1 [Example 328, 2-{4-[2-(4-chlorophenyl)-5-(4-oxopiperidinocarbonyl)-benzyloxy]phenyl}-1-cyclohexylbenzimidazole-5-carboxylic acid hydrochloride] |  | 15 nM
O=C(O)c1ccc2c(c1)nc(-c1ccc(OCc3cc(O)ccc3-c3ccc(Cl)cc3)cc1)n2C1CCCCC1 [Example 329, 2-{4-[2-(4-chlorophenyl)-5-hydroxybenzyloxy]phenyl}-1-cyclohexylbenzimidazole-5-carboxylic acid hydrochloride] | 47 nM | 
CC(C)NC(=O)c1ccc(-c2ccc(Cl)cc2)c(COc2ccc(-c3nc4cc(C(=O)O)ccc4n3C3CCCCC3)cc2)c1 [Example 330, 2-{4-[2-(4-chlorophenyl)-5-(isopropylcarbamoyl)benzyloxy]phenyl}-1-cyclohexylbenzimidazole-5-carboxylic acid hydrochloride] | 11 nM | 
CC(C)N(C)C(=O)c1ccc(-c2ccc(Cl)cc2)c(COc2ccc(-c3nc4cc(C(=O)O)ccc4n3C3CCCCC3)cc2)c1 [Example 331, 2-{4-[2-(4-chlorophenyl)-5-(N-isopropyl-N-methylcarbamoyl)-benzyloxy]phenyl}-1-cyclohexylbenzimidazole-5-carboxylic acid hydrochloride] | 17 nM | 
O=C(O)c1ccc2c(c1)nc(-c1ccc(OCc3cc(C(=O)Nc4ccccc4)ccc3-c3ccc(Cl)cc3)cc1)n2C1CCCCC1 [Example 332, 2-{4-[2-(4-chlorophenyl)-5-(phenylcarbamoyl)benzyloxy]phenyl}-1-cyclohexylbenzimidazole-5-carboxylic acid hydrochloride] | 23 nM | 
COC1CCN(C(=O)c2ccc(-c3ccc(Cl)cc3)c(COc3ccc(-c4nc5cc(C(=O)O)ccc5n4C4CCCCC4)cc3)c2)CC1 [Example 333, 2-{4-[2-(4-chlorophenyl)-5-(4-methoxypiperidinocarbonyl)-benzyloxy]phenyl}-1-cyclohexylbenzimidazole-5-carboxylic acid hydrochloride] | 16 nM | 
